From PMC4549746, “Zearalenone in the Intestinal Tissues of Immature Gilts Exposed per os to Mycotoxins” (Toxins, 2015)
“Also recorded” adds a separate entry of the source.

How the values were obtained:
[1] = ZEN concentrations and carryover factor in intestinal tissues and liver of pre-pubertal gilts exposed per os (HPLC); type: in vivo; conditions: gilts given ZEN 40 μg/kg BW daily per os, 42 days; detection limits 0.003 µg·g^−1 α-ZEL, 0.002 µg·g^−1 β-ZEL
Experimental: The animals were divided into an experimental group (E, n = 18) and a control group (C, n = 21). Group E animals were orally administered ZEN at 40 μg/kg BW. Group C pigs were fed a placebo. The animals were fed complete diets in a restricted feeding regimen (Table 1). The daily dose of ZEN (40 µg/kg BW) was administered to each animal individually, which corresponds to exposure to 957–1014 µg ZEN/kg of a complete diet, depending on daily feed intake. Zearalenone was biosynthesized, purified and standardized by the Department of Chemistry of the Poznań University of Life Sciences. The experiment covered a period of 42 days. The mycotoxin was administered per os daily, in gelatine capsules before the morning feeding. The ZEN dose was adjusted to the body weight of the experimental animals. The mycotoxin was administered in capsules to prevent problems associated with uneven feed intake. Mycotoxin samples were diluted in 300 μL of 96% ethyl alcohol (96% ethyl alcohol, SWW 2442-90, Polskie Odczynniki Chemiczne SA, Gliwice, Poland) to the required dose level (based on body weight). Final solutions were stored at room temperature for 12 h to evaporate the solvent. The animals were weighed every 7 days to update mycotoxin doses for each gilt. Three animals from the experimental group and the control group each were sacrificed on Days 1, 7, 14, 21, 28, 35 and 42 (a total of 6 gilts in each week of exposure), excluding day 1, when only 3 control group animals were scarified. Every week, tissue samples were collected from the porcine gastrointestinal tract (duodenum, first and middle sections, jejunum, ileum, cecum, ascending colon, transverse colon, descending colon, middle section, and the liver, left lobe). Tissue samples were collected from the whole intestinal cross-sections.
Post-mortem tissue samples were collected from the duodenum, jejunum, ileum, cecum, ascending colon, transverse colon, descending colon and the liver after rinsing with phosphate buffer. Pure tissues were stored at −80 °C until shredding and extraction.
Tissue samples (2 g) were homogenized with 9 cm^3 of methanol for 4 min; they were transferred to centrifuge tubes with a minimal amount of the sediment, and the remainder was combined with 5 cm^3 of methanol and repeatedly homogenized. The extracts were combined and centrifuged for 10 min. The supernatant was transferred to a graduated test tube; its volume was read from the scale, and it was evaporated under a stream of nitrogen at a temperature of 60 °C to 0.1–0.2 cm^3 of water. The evaporated product was combined with 2 cm^3 of deionized water, 2 cm^3 of 0.2 M sodium acetate and 500 µL of […] solution. After 16 h of incubation at 37 °C, the reaction was stopped by adding 0.5 cm^3 of acetonitrile. The mixture was quantitatively transferred to a centrifuge tube; it was combined with 10 cm^3 of deionized water and centrifuged for 10 min at 3500 rpm. The supernatant was applied to the Zearala-Test™ column at the rate of 1–2 drops per second. Mycotoxins were eluted from the column with 1.5 mL of methanol; the solvent was evaporated, and the residue was reconstituted with 1 mL of methanol for HPLC analysis.
The concentrations of ZEN and its derivatives were determined by HPLC with the use of the Waters 2695 Separations Module, Waters 2475 Multi λ Fluorescence Detector and Waters 2996 Array Detector. Excitation and emission wavelengths were 274 and 440 nm, respectively. The reverse-phase column was C-18 Nova Pak (3.9 × 150 mm), and the mobile phase was acetonitrile-water-methanol (46:46:8, v/v/v) at a flow rate of 0.5 mL·min^−1. The mycotoxins were quantified by measuring the […] of the peaks based on the relevant calibration curves (correlation coefficient of 0.9996 for ZEN, 0.9989 for α-ZEL and 0.9976 for β-ZEL). Detection limits were determined at 0.001 µg·g^−1 for ZEN, 0.003 µg·g^−1 for α-ZEL and 0.002 µg·g^−1 for β-ZEL. […]

[2] = relative to parent compound ZEN; cited from earlier work
[3] = parameters: method as in PMID 15972077; conditions: animal feed naturally contaminated with ZEN and α-ZEL; cited from earlier work

Row | Compound | concentrations of ZEN metabolites in the digestive tract and the liver [1] | estrogenic activity in comparison to ZEN [2] | absorbed from the duodenum [3]
1 | C[C@H]1CCC[C@H](O)CCC/C=C/c2cc(O)cc(O)c2C(=O)O1 [α-ZEL, α-zearalenol] | below the sensitivity of the method | three-fold or even four-fold higher; also recorded: three- to four-fold higher | 65%
2 | C[C@H]1CCC[C@@H](O)CCC/C=C/c2cc(O)cc(O)c2C(=O)O1 [β-ZEL, β-zearalenol] | below the sensitivity of the method | – | –
